Assay results reported in PubChem BioAssay (NCI).
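Protocol summary: plate cells (96-well), add compound at 5 concentrations, incubate 48 h, interpolate endpoints linearly. The concentration for 50% growth inhibition is given as GI50. TGI denotes the concentration required for complete inhibition of growth.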

What was measured:
Assay in all cases: growth of human tumour cells (NCI), 48 h
HCT-116 colon = system: HCT-116 colon
RPMI-8226 leukemia = system: RPMI-8226 leukemia
K-562 leukemia = system: K-562 leukemia
T-47D breast = system: T-47D breast
UACC-257 melanoma = system: UACC-257 melanoma
KM12 colon = system: KM12 colon
HS 578T breast = system: HS 578T breast
CCRF-CEM leukemia = system: CCRF-CEM leukemia
HOP-62 NSCLC = system: HOP-62 NSCLC
EKVX NSCLC = system: EKVX NSCLC
SK-MEL-2 melanoma = system: SK-MEL-2 melanoma
A498 renal = system: A498 renal
SR leukemia = system: SR leukemia
SF-295 CNS = system: SF-295 CNS
SW-620 colon = system: SW-620 colon
NCI-H460 lung = system: NCI-H460 lung
DU-145 prostate = system: DU-145 prostate
M14 melanoma = system: M14 melanoma
UACC-62 melanoma = system: UACC-62 melanoma
HT29 colon = system: HT29 colon
HL-60(TB) leukemia = system: HL-60(TB) leukemia
CAKI-1 renal = system: CAKI-1 renal
A549 NSCLC = system: A549 NSCLC
MDA-MB-468 breast = system: MDA-MB-468 breast
NCI-H226 lung = system: NCI-H226 lung
NCI-H522 lung = system: NCI-H522 lung
HOP-92 NSCLC = system: HOP-92 NSCLC
PC-3 prostate = system: PC-3 prostate
HCC-2998 colon = system: HCC-2998 colon
NCI/ADR-RES ovarian = system: NCI/ADR-RES ovarian
SN12C renal = system: SN12C renal
TK-10 renal = system: TK-10 renal
MDA-MB-231 breast = system: MDA-MB-231 breast
SK-MEL-28 melanoma = system: SK-MEL-28 melanoma
MDA-MB-435 = system: MDA-MB-435
U251 CNS = system: U251 CNS
SNB-19 CNS = system: SNB-19 CNS
BT-549 breast = system: BT-549 breast
COLO 205 colon = system: COLO 205 colon
OVCAR-5 ovarian = system: OVCAR-5 ovarian
ACHN renal = system: ACHN renal
SK-OV-3 ovarian = system: SK-OV-3 ovarian
SF-539 CNS = system: SF-539 CNS
SK-MEL-5 melanoma = system: SK-MEL-5 melanoma
OVCAR-3 ovarian = system: OVCAR-3 ovarian
MOLT-4 leukemia = system: MOLT-4 leukemia
OVCAR-4 ovarian = system: OVCAR-4 ovarian
IGROV1 ovarian = system: IGROV1 ovarian
UO-31 renal = system: UO-31 renal
NCI-H23 lung = system: NCI-H23 lung
MCF7 breast = system: MCF7 breast
786-0 renal = system: 786-0 renal
SF-268 CNS = system: SF-268 CNS
OVCAR-8 ovarian = system: OVCAR-8 ovarian
MALME-3M melanoma = system: MALME-3M melanoma
RXF 393 renal = system: RXF 393 renal
LOX IMVI melanoma = system: LOX IMVI melanoma
SNB-75 CNS = system: SNB-75 CNS
HCT-15 colon = system: HCT-15 colon

## COc1cnc2c(c1)C(=O)c1c-2n(CCCNCCO)c(=O)c2cc(OC)c(OC)cc12
HCT-116 colon
  GI50: 1.15 µM
  TGI: 2.85 µM
RPMI-8226 leukemia
  GI50: 1.73 µM
  TGI: 10.5 µM
K-562 leukemia
  GI50: 0.708 µM
  TGI: 22.9 µM
T-47D breast
  GI50: 0.746 µM
  TGI: 12.3 µM
UACC-257 melanoma
  GI50: 13.6 µM
  TGI: > 100 µM
KM12 colon
  GI50: 12.4 µM
  TGI: 25.9 µM
HS 578T breast
  GI50: 12.1 µM
  TGI: 43.1 µM
CCRF-CEM leukemia
  GI50: 0.268 µM
  TGI: 18.8 µM
HOP-62 NSCLC
  GI50: 0.349 µM
  TGI: 3.78 µM
EKVX NSCLC
  GI50: 6.9 µM
  TGI: 20.4 µM
SK-MEL-2 melanoma
  GI50: 17.1 µM
  TGI: 37.9 µM
A498 renal
  GI50: 12.5 µM
  TGI: 25.6 µM
SR leukemia
  GI50: 0.393 µM
  TGI: 21.5 µM
SF-295 CNS
  GI50: 0.418 µM
  TGI: 12.3 µM
SW-620 colon
  GI50: 1.37 µM
  TGI: 18.2 µM
NCI-H460 lung
  GI50: 0.423 µM
  TGI: 8.75 µM
DU-145 prostate
  GI50: 0.726 µM
  TGI: 12.1 µM
M14 melanoma
  GI50: 3.77 µM
  TGI: 15.8 µM
UACC-62 melanoma
  GI50: 1.17 µM
  TGI: 10.4 µM
HT29 colon
  GI50: 1.46 µM
  TGI: 10.9 µM
HL-60(TB) leukemia
  GI50: 0.733 µM
  TGI: 13.5 µM
CAKI-1 renal
  GI50: 1.85 µM
  TGI: 16.3 µM
A549 NSCLC
  GI50: 4.88 µM
  TGI: 20.7 µM
MDA-MB-468 breast
  GI50: 1.08 µM
  TGI: 2.78 µM
NCI-H226 lung
  GI50: 1.35 µM
  TGI: 9.83 µM
NCI-H522 lung
  GI50: 0.459 µM
  TGI: 3.33 µM
HOP-92 NSCLC
  GI50: 5.07 µM
  TGI: 20.8 µM
PC-3 prostate
  GI50: 2.77 µM
  TGI: 22.2 µM
HCC-2998 colon
  GI50: 2.25 µM
  TGI: 10.8 µM
NCI/ADR-RES ovarian
  GI50: 16.4 µM
  TGI: > 100 µM
SN12C renal
  GI50: 3.28 µM
  TGI: 16 µM
TK-10 renal
  GI50: 15.5 µM
  TGI: 30.1 µM
MDA-MB-231 breast
  GI50: 6.52 µM
  TGI: 20.3 µM
SK-MEL-28 melanoma
  GI50: 13.2 µM
  TGI: 26.2 µM
MDA-MB-435
  GI50: 6.88 µM
  TGI: 20.7 µM
U251 CNS
  GI50: 0.495 µM
  TGI: 10.8 µM
SNB-19 CNS
  GI50: 1.47 µM
  TGI: 15.3 µM
BT-549 breast
  GI50: 9.48 µM
  TGI: 22.9 µM
COLO 205 colon
  GI50: 3.33 µM
  TGI: 20 µM
OVCAR-5 ovarian
  GI50: 4.91 µM
  TGI: 18.4 µM
ACHN renal
  GI50: 2.1 µM
  TGI: 13.2 µM
SK-OV-3 ovarian
  GI50: 1.62 µM
  TGI: 5.98 µM
SF-539 CNS
  GI50: 0.492 µM
  TGI: 2.4 µM
SK-MEL-5 melanoma
  GI50: 0.72 µM
  TGI: 3.16 µM
OVCAR-3 ovarian
  GI50: 4.52 µM
  TGI: 16.9 µM
MOLT-4 leukemia
  GI50: 0.311 µM
  TGI: 19.1 µM
OVCAR-4 ovarian
  GI50: 8.24 µM
  TGI: 27.6 µM
IGROV1 ovarian
  GI50: 12.1 µM
  TGI: 28 µM
UO-31 renal
  GI50: 5.96 µM
  TGI: 19.5 µM
NCI-H23 lung
  GI50: 0.395 µM
  TGI: 2.34 µM
MCF7 breast
  GI50: 0.174 µM
  TGI: 4.05 µM
786-0 renal
  GI50: 2.54 µM
  TGI: 14.9 µM
SF-268 CNS
  GI50: 0.92 µM
  TGI: 20.9 µM
OVCAR-8 ovarian
  GI50: 3 µM
  TGI: 16 µM
MALME-3M melanoma
  GI50: 7.2 µM
  TGI: 21.6 µM
RXF 393 renal
  GI50: 1.52 µM
  TGI: 5.81 µM
LOX IMVI melanoma
  GI50: 0.475 µM
  TGI: 1.9 µM
SNB-75 CNS
  GI50: 0.352 µM
  TGI: 10.3 µM
HCT-15 colon
  GI50: 2.74 µM
  TGI: 14.6 µM
